Results as given in article PMC10817917, “Alkyl deoxyglycoside-polymyxin combinations against critical priority carbapenem-resistant gram-negative bacteria” (Scientific Reports, 2024).
Read-outs that look alike come from different tables or passages of the source.

Assays:
E. coli ATCC 25922 = assay: Broth microdilution MIC/MBC, glycosides with or without polymyxins; type: cell-based, Escherichia coli
E. coli NCTC 13846 = assay: as above; type: cell-based, Escherichia coli; settings: strain B
K. pneumoniae CQ1947 = assay: Broth microdilution MIC, glycosides with or without polymyxins; type: cell-based, Klebsiella pneumoniae; settings: for MIC: Klebsiella pneumoniae, CQ1947
K. pneumoniae CQ1942 = assay: as above; type: cell-based, Klebsiella pneumoniae; settings: for MIC: Klebsiella pneumoniae, CQ1942
P. aeruginosa CQ4924 = assay: as above; type: cell-based, Pseudomonas aeruginosa; settings: for MIC: Pseudomonas aeruginosa, CQ4924
[1] = combination with the lowest FICI
[2] = compound + colistin, lowest FICI
[3] = alone, read-out: MICA (MIC of each compound individually)

MICA(A + B) (MIC of compound in combination with colistin) (E. coli ATCC 25922; [1]): 12.5 mg/L | MICB(A + B) (MIC of colistin in combination with compound) (E. coli ATCC 25922; [1]): 0.06 mg/L | MIC of colistin in combination with the compound (E. coli NCTC 13846; Cpd conc. 0.4 μg/mL): > 0.5 µg/mL | MIC of colistin in combination with the compound (E. coli NCTC 13846; Cpd conc. 0.8 μg/mL): > 0.5 µg/mL | MIC of colistin in combination with the compound (E. coli NCTC 13846; Cpd conc. 3.125 μg/mL): > 0.5 µg/mL | MIC of colistin in combination with the compound (E. coli NCTC 13846; Cpd conc. 6.25 μg/mL): > 0.5 µg/mL | MIC of colistin in combination with the compound (E. coli NCTC 13846; Cpd conc. 12.5 μg/mL): > 0.5 µg/mL | MIC of colistin in combination with the compound (E. coli NCTC 13846; Cpd conc. […]): > 0.5 µg/mL | MIC (E. coli NCTC 13846; Escherichia coli, NCTC13846, agent alone, no adjuvant (polymyxin conc. 0), read-out: MIC): > 100 µg/mL | MIC of compound in combination with PMB (E. coli NCTC 13846; PMB 0.25 μg/mL): > 100 µg/mL | MIC of compound in combination with PMB (E. coli NCTC 13846; PMB 0.5 μg/mL): > 100 µg/mL | MIC of compound in combination with colistin (E. coli NCTC 13846; colistin 0.06 μg/mL): > 100 µg/mL | MIC of compound in combination with colistin (E. coli NCTC 13846; colistin 0.125 μg/mL): > 100|> 100 μg/mL | MIC of compound in combination with colistin (E. coli NCTC 13846; colistin 0.25 μg/mL): > 100 µg/mL | MIC of compound in combination with colistin (E. coli NCTC 13846; colistin 0.5 μg/mL): > 100 µg/mL | MIC of colistin in combination with the compound (K. pneumoniae CQ1947; Cpd conc. 0.4 μg/mL, strain F): 0.5 µg/mL | MIC of colistin in combination with the compound (K. pneumoniae CQ1947; Cpd conc. 0.8 μg/mL, strain F): 0.5 µg/mL | MIC of colistin in combination with the compound (K. pneumoniae CQ1947; Cpd conc. 3.125 μg/mL, strain F): 0.25 µg/mL | MIC of colistin in combination with the compound (K. pneumoniae CQ1947; Cpd conc. 6.25 μg/mL, strain F): 0.25 µg/mL | MIC of colistin in combination with the compound (K. pneumoniae CQ1947; Cpd conc. 12.5 μg/mL, strain F): 0.25 µg/mL | MIC of colistin in combination with the compound (K. pneumoniae CQ1947; Cpd conc. […], strain F): 0.5 µg/mL | MIC (K. pneumoniae CQ1947; agent alone, no adjuvant (polymyxin conc. 0), strain F, read-out: MIC): > 100 µg/mL | MIC (K. pneumoniae CQ1947; [3]): > 100 µg/mL | MIC of compound in combination with PMB (K. pneumoniae CQ1947; PMB 0.25 μg/mL, strain F): > 100 µg/mL | MIC of compound in combination with PMB (K. pneumoniae CQ1947; PMB 0.5 μg/mL, strain F): 3.1 µg/mL | MIC of compound in combination with colistin (K. pneumoniae CQ1947; colistin 0.06 μg/mL, strain F): > 100 µg/mL | MIC of compound in combination with colistin (K. pneumoniae CQ1947; colistin 0.125 μg/mL, strain F): > 100 µg/mL | MIC of compound in combination with colistin (K. pneumoniae CQ1947; colistin 0.5 μg/mL, strain F): 0.2 µg/mL | MICA(A + B) (MIC of compound in combination with colistin) (K. pneumoniae CQ1947; [1]): 3.125 mg/L | MICB(A + B) (MIC of colistin in combination with compound) (K. pneumoniae CQ1947; [1]): 0.25 mg/L | MIC of colistin in combination with the compound (K. pneumoniae CQ1942; Cpd conc. 0.4 μg/mL, strain E): 0.5 µg/mL | MIC of colistin in combination with the compound (K. pneumoniae CQ1942; Cpd conc. 0.8 μg/mL, strain E): 0.5 µg/mL | MIC of colistin in combination with the compound (K. pneumoniae CQ1942; Cpd conc. 3.125 μg/mL, strain E): 0.25 µg/mL | MIC of colistin in combination with the compound (K. pneumoniae CQ1942; Cpd conc. 6.25 μg/mL, strain E): 0.25 µg/mL | MIC of colistin in combination with the compound (K. pneumoniae CQ1942; Cpd conc. 12.5 μg/mL, strain E): 0.25 µg/mL | MIC of colistin in combination with the compound (K. pneumoniae CQ1942; Cpd conc. […], strain E): 0.5 µg/mL | MIC (K. pneumoniae CQ1942; agent alone, no adjuvant (polymyxin conc. 0), strain E, read-out: MIC): > 100 µg/mL | MIC (K. pneumoniae CQ1942; [3]): > 100 µg/mL | MIC of compound in combination with PMB (K. pneumoniae CQ1942; PMB 0.25 μg/mL, strain E): > 100 µg/mL | MIC of compound in combination with PMB (K. pneumoniae CQ1942; PMB 0.5 μg/mL, strain E): 1.6 µg/mL | MIC of compound in combination with colistin (K. pneumoniae CQ1942; colistin 0.06 μg/mL, strain E): > 100 µg/mL | MIC of compound in combination with colistin (K. pneumoniae CQ1942; colistin 0.125 μg/mL, strain E): > 100 µg/mL | MIC of compound in combination with colistin (K. pneumoniae CQ1942; colistin 0.5 μg/mL, strain E): ≤ 0.1 µg/mL | MICA(A + B) (MIC of compound in combination with colistin) (K. pneumoniae CQ1942; [1]): 3.125 mg/L | MICB(A + B) (MIC of colistin in combination with compound) (K. pneumoniae CQ1942; [1]): 0.25 mg/L | MIC of colistin in combination with the compound (P. aeruginosa CQ4924; Cpd conc. 0.4 μg/mL, strain H): > 0.5 µg/mL | MIC of colistin in combination with the compound (P. aeruginosa CQ4924; Cpd conc. 0.8 μg/mL, strain H): > 0.5 µg/mL | MIC of colistin in combination with the compound (P. aeruginosa CQ4924; Cpd conc. 3.125 μg/mL, strain H): 0.5 µg/mL | MIC of colistin in combination with the compound (P. aeruginosa CQ4924; Cpd conc. 6.25 μg/mL, strain H): 0.5 µg/mL | MIC of colistin in combination with the compound (P. aeruginosa CQ4924; Cpd conc. 12.5 μg/mL, strain H): 0.5 µg/mL | MIC of colistin in combination with the compound (P. aeruginosa CQ4924; Cpd conc. […], strain H): > 0.5 µg/mL | MIC of compound in combination with PMB (P. aeruginosa CQ4924; PMB 0.25 μg/mL, strain H): > 100 µg/mL | MIC of compound in combination with PMB (P. aeruginosa CQ4924; PMB 0.5 μg/mL, strain H): 6.3 µg/mL | MIC (P. aeruginosa CQ4924; agent alone, no adjuvant (polymyxin conc. 0), strain H, read-out: MIC): > 100 µg/mL | MIC (P. aeruginosa CQ4924; [3]): > 100 µg/mL | MIC of compound in combination with colistin (P. aeruginosa CQ4924; colistin 0.06 μg/mL, strain H): > 100 µg/mL | MIC of compound in combination with colistin (P. aeruginosa CQ4924; colistin 0.125 μg/mL, strain H): > 100 µg/mL | MIC of compound in combination with colistin (P. aeruginosa CQ4924; colistin 0.25 μg/mL, strain H): > 100 µg/mL | MIC of compound in combination with colistin (P. aeruginosa CQ4924; colistin 0.5 μg/mL, strain H): 3.1 µg/mL | MICA(A + B) (MIC of compound in combination with colistin) (P. aeruginosa CQ4924; [1]): 3.125 mg/L | MICB(A + B) (MIC of colistin in combination with compound) (P. aeruginosa CQ4924; [1]): 0.5 mg/L
Structure (SMILES): CCCCCCCCCCCC[C@H]1O[C@H](C)C[C@H](O)[C@H]1O [Compound 5, 1-(4,6-dideoxy-α-D-xylo-hexopyranosyl)dodecane]
Interpretation (of FICI) (E. coli ATCC 25922; compound + colistin): Synergy (Values ≤ 0.5 were considered synergistic) | FICI (E. coli ATCC 25922; [2]): 0.18 | MBC of compound in combination with colistin (E. coli NCTC 13846; colistin 0.125 μg/mL): > 100|> 100 μg/mL | Interpretation (of FICI) (K. pneumoniae CQ1947; compound + colistin): Additive (from 0.5 to 1.0 were additive) | FICI (K. pneumoniae CQ1947; [2]): 0.52 | Interpretation (of FICI) (K. pneumoniae CQ1942; compound + colistin): Additive (from 0.5 to 1.0 were additive) | FICI (K. pneumoniae CQ1942; [2]): 0.52 | Interpretation (of FICI) (P. aeruginosa CQ4924; compound + colistin): Additive (from 0.5 to 1.0 were additive) | FICI (P. aeruginosa CQ4924; [2]): 0.52
